In PMC11675744, “Grape Pomace as a Source of Phenolics for the Inhibition of Starch Digestion Enzymes: A Comparative Study and Standardization of the Efficacy” (Foods, 2024):

Target: T1, rat intestinal α-glucosidase
T1 construct: gene Mgam; crude supernatant of rat intestinal acetone powder (Sigma N1377-5G), brush border enzymes, not purified
Assay: p-nitrophenol release, absorbance […] nm, five-point dose-response
Assay type: biochemical
Conditions: substrate p-nitrophenyl α-D-glucoside (1 mM stock, 200 µL in 1 mL), phosphate pH 6.8, 37 °C, 5 min pre-incubation; crude extract

I50: 100 µg/mL
Compound: C[C@H]1O[C@H](O[C@H]2[C@H](O)[C@@H](O)[C@@H](O[C@H]3[C@H](O)[C@@H](O)C(O)O[C@@H]3CO)O[C@@H]2CO)[C@H](O)[C@@H](O)[C@@H]1N[C@H]1C=C(CO)[C@@H](O)[C@H](O)[C@H]1O (stereo partly shown) [acarbose]
